Active and inactive are the calls of the source.
What was measured:
CCRF-CEM = assay: In vitro ability to inhibit the growth of CCRF-CEM human T-lymphoblastic leukemia; Compound was inactive at 100 uM and 1000 uM respectively.; type: functional, cell-based
Human alphaherpesvirus 2 = assay: In vitro antiviral activity against herpes simplex virus type 2 (MS); Compound was inactive at 100 uM and 1000 uM respectively.; type: functional, organism-based
Influenza A virus = assay: In vitro antiviral activity against influenza A virus (chile); Compound was inactive at 100 uM and 1000 uM respectively.; type: functional, organism-based
L1210 = assay: In vitro ability to inhibit the growth of L1210 murine lymphocytic leukemia; Compound was inactive at 100 uM and 1000 uM respectively.; type: functional, cell-based; details: Mus musculus
Human respirovirus 3 = assay: In vitro antiviral activity against parainfluenza virus type 3 (C243); Compound was inactive at 100 uM and 1000 uM respectively.; type: functional, organism-based
Human rhinovirus 1A = assay: In vitro antiviral activity against rhino virus type 1-A (2060); Compound was inactive at 100 uM and 1000 uM respectively.; type: functional, organism-based
Semliki Forest virus = assay: In vitro antiviral activity against semliki forest virus (original); Compound was inactive at 100 uM and 1000 uM respectively.; type: functional, organism-based
Visna-maedi virus = assay: In vitro antiviral activity against vinsa virus (1513); Compound was inactive at 100 uM and 1000 uM respectively.; type: functional, organism-based
Homo sapiens = species: Homo sapiens; assay: In vitro ability to inhibit the growth of WI-L2 human B-lymphoblastic leukemia; Compound was inactive at 100 uM and 1000 uM respectively.; type: functional
Human adenovirus 2 = assay: In vitro antiviral activity against adeno virus type 2; Compound was inactive at 100 uM and 1000 uM respectively.; type: functional, organism-based

Measured: Activity

O=c1ccc2nnc([C@@H]3O[C@H](CO)[C@@H](O)[C@H]3O)n2[nH]1
inactive: CCRF-CEM inactive at 100 uM and 1000 uM respectively | Human alphaherpesvirus 2 inactive at 100 uM and 1000 uM respectively | Influenza A virus inactive at 100 uM and 1000 uM respectively | L1210 inactive at 100 uM and 1000 uM respectively | Human respirovirus 3 inactive at 100 uM and 1000 uM respectively | Human rhinovirus 1A inactive at 100 uM and 1000 uM respectively | Semliki Forest virus inactive at 100 uM and 1000 uM respectively | Visna-maedi virus inactive at 100 uM and 1000 uM respectively | Homo sapiens inactive at 100 uM and 1000 uM respectively | Human adenovirus 2 inactive at 100 uM and 1000 uM respectively

Nc1c(Cl)cnn2c([C@@H]3O[C@H](CO)[C@@H](O)[C@H]3O)nnc12
inactive: CCRF-CEM inactive at 100 uM and 1000 uM respectively | Human alphaherpesvirus 2 inactive at 100 uM and 1000 uM respectively | Influenza A virus inactive at 100 uM and 1000 uM respectively | L1210 inactive at 100 uM and 1000 uM respectively | Human respirovirus 3 inactive at 100 uM and 1000 uM respectively | Human rhinovirus 1A inactive at 100 uM and 1000 uM respectively | Semliki Forest virus inactive at 100 uM and 1000 uM respectively | Visna-maedi virus inactive at 100 uM and 1000 uM respectively | Homo sapiens inactive at 100 uM and 1000 uM respectively | Human adenovirus 2 inactive at 100 uM and 1000 uM respectively

Nc1cnn2c([C@@H]3O[C@H](CO)[C@@H](O)[C@H]3O)nnc2c1
inactive: CCRF-CEM inactive at 100 uM and 1000 uM respectively | Human alphaherpesvirus 2 inactive at 100 uM and 1000 uM respectively | Influenza A virus inactive at 100 uM and 1000 uM respectively | L1210 inactive at 100 uM and 1000 uM respectively | Human respirovirus 3 inactive at 100 uM and 1000 uM respectively | Human rhinovirus 1A inactive at 100 uM and 1000 uM respectively | Semliki Forest virus inactive at 100 uM and 1000 uM respectively | Visna-maedi virus inactive at 100 uM and 1000 uM respectively | Homo sapiens inactive at 100 uM and 1000 uM respectively | Human adenovirus 2 inactive at 100 uM and 1000 uM respectively

Nc1cnn2c([C@@H]3O[C@H](CO)[C@@H](O)[C@H]3O)nnc2c1Cl
inactive: CCRF-CEM inactive at 100 uM and 1000 uM respectively | Human alphaherpesvirus 2 inactive at 100 uM and 1000 uM respectively | Influenza A virus inactive at 100 uM and 1000 uM respectively | L1210 inactive at 100 uM and 1000 uM respectively | Human respirovirus 3 inactive at 100 uM and 1000 uM respectively | Human rhinovirus 1A inactive at 100 uM and 1000 uM respectively | Semliki Forest virus inactive at 100 uM and 1000 uM respectively | Visna-maedi virus inactive at 100 uM and 1000 uM respectively | Homo sapiens inactive at 100 uM and 1000 uM respectively | Human adenovirus 2 inactive at 100 uM and 1000 uM respectively

Nc1ccnn2c([C@@H]3O[C@H](CO)[C@@H](O)[C@H]3O)nnc12
inactive: CCRF-CEM inactive at 100 uM and 1000 uM respectively | Human alphaherpesvirus 2 inactive at 100 uM and 1000 uM respectively | Influenza A virus inactive at 100 uM and 1000 uM respectively | L1210 inactive at 100 uM and 1000 uM respectively | Human respirovirus 3 inactive at 100 uM and 1000 uM respectively | Human rhinovirus 1A inactive at 100 uM and 1000 uM respectively | Semliki Forest virus inactive at 100 uM and 1000 uM respectively | Visna-maedi virus inactive at 100 uM and 1000 uM respectively | Homo sapiens inactive at 100 uM and 1000 uM respectively | Human adenovirus 2 inactive at 100 uM and 1000 uM respectively

Nc1ccc2nnc([C@@H]3O[C@H](CO)[C@@H](O)[C@H]3O)n2n1
inactive: CCRF-CEM inactive at 100 uM and 1000 uM respectively | Human alphaherpesvirus 2 inactive at 100 uM and 1000 uM respectively | Influenza A virus inactive at 100 uM and 1000 uM respectively | L1210 inactive at 100 uM and 1000 uM respectively | Human respirovirus 3 inactive at 100 uM and 1000 uM respectively | Human rhinovirus 1A inactive at 100 uM and 1000 uM respectively | Semliki Forest virus inactive at 100 uM and 1000 uM respectively | Visna-maedi virus inactive at 100 uM and 1000 uM respectively | Homo sapiens inactive at 100 uM and 1000 uM respectively | Human adenovirus 2 inactive at 100 uM and 1000 uM respectively

COc1ccc2nnc([C@@H]3O[C@H](CO)[C@@H](O)[C@H]3O)n2n1
inactive: CCRF-CEM inactive at 100 uM and 1000 uM respectively | Human alphaherpesvirus 2 inactive at 100 uM and 1000 uM respectively | Influenza A virus inactive at 100 uM and 1000 uM respectively | L1210 inactive at 100 uM and 1000 uM respectively | Human respirovirus 3 inactive at 100 uM and 1000 uM respectively | Human rhinovirus 1A inactive at 100 uM and 1000 uM respectively | Semliki Forest virus inactive at 100 uM and 1000 uM respectively | Visna-maedi virus inactive at 100 uM and 1000 uM respectively | Homo sapiens inactive at 100 uM and 1000 uM respectively | Human adenovirus 2 inactive at 100 uM and 1000 uM respectively
